Assay results taken from ChEMBL document CHEMBL1201862, “PubChem BioAssay data set” (2004).
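Briefly, cells in 96-well plates were exposed to five compound concentrations for 48 h, and endpoints were estimated by linear interpolation. GI50: concentration for 50% inhibition of growth.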 Activity calls are given as the source filed them. Rule as the data show it: active = GI50 up to about 1.1 µM and inactive = higher.

Columns and labels:
Test in all cases: DTP human tumour cell line panel, 48 h
CAKI-1 = system: CAKI-1
MDA-MB-435 = system: MDA-MB-435
OVCAR-5 = system: OVCAR-5
PC-3 = system: PC-3
MOLT-4 = system: MOLT-4
RXF 393 = system: RXF 393
TK-10 = system: TK-10
SNB-19 = system: SNB-19
ACHN = system: ACHN
HCT-116 = system: HCT-116
RPMI-8226 = system: RPMI-8226
OVCAR-8 = system: OVCAR-8
K562 = system: K562
786-0 = system: 786-0
BT-549 = system: BT-549
HCC 2998 = system: HCC 2998
HOP-92 = system: HOP-92
SR = system: SR

Structure (SMILES)	GI50 (CAKI-1)	GI50 (MDA-MB-435)	GI50 (OVCAR-5)	GI50 (PC-3)	GI50 (MOLT-4)	GI50 (RXF 393)	GI50 (TK-10)	GI50 (SNB-19)	GI50 (ACHN)	GI50 (HCT-116)	GI50 (RPMI-8226)	GI50 (OVCAR-8)	GI50 (K562)	GI50 (786-0)	GI50 (BT-549)	GI50 (HCC 2998)	GI50 (HOP-92)	GI50 (SR)
O=C1C=CC2(O[C@H](c3ccccc3)[C@@H](c3ccccc3)O2)[C@H](Sc2ccccc2O)C1	0.34 µM (active)	0.309 µM (active)	2.35 µM (inactive)	0.7 µM (active)	0.0286 µM (active)	0.238 µM (active)	0.29 µM (active)	1.72 µM (inactive)	0.351 µM (active)	0.122 µM (active)	0.0424 µM (active)	0.105 µM (active)	0.405 µM (active)	0.15 µM (active)	0.502 µM (active)	0.454 µM (active)	0.52 µM (active)	
C(#C[C@@]12CCC[C@@H]1N(Cc1ccccc1)CO2)c1ccc2c(c1)OCO2	> 100 µM (inactive)	> 100 µM (inactive)	> 100 µM (inactive)	> 100 µM (inactive)	> 100 µM (inactive)	> 100 µM (inactive)		> 100 µM (inactive)	> 100 µM (inactive)	> 100 µM (inactive)	> 100 µM (inactive)	> 100 µM (inactive)	> 100 µM (inactive)	> 100 µM (inactive)	> 100 µM (inactive)	> 100 µM (inactive)		
COC(=O)C1=C(OC(=O)/C(=C/c2ccc(Cl)cc2)c2ccc(Cl)cc2)C(C(=O)OC)[C@@]2(O)[C@@H](C(=O)OC)[C@H](C)C[C@@H]1[C@@H]2C(=O)OC (some centres not stated)	> 100 µM (inactive)	> 100 µM (inactive)	> 21 µM (inactive)	12.6 µM (inactive)	0.328 µM (active)	> 61.4 µM (inactive)	> 100 µM (inactive)	16.4 µM (inactive)	25.9 µM (inactive)	31.6 µM (inactive)	18 µM (inactive)	25.1 µM (inactive)	2.33 µM (inactive)	> 100 µM (inactive)		> 73.6 µM (inactive)	6.67 µM (inactive)	> 63.2 µM (inactive)
N#Cc1c(N2CCCC2)nsc1Nc1ccccc1	> 10 µM (inactive)		> 100 µM (inactive)	> 100 µM (inactive)	> 100 µM (inactive)	> 100 µM (inactive)	> 100 µM (inactive)	> 100 µM (inactive)	> 100 µM (inactive)	> 100 µM (inactive)	> 100 µM (inactive)	> 100 µM (inactive)	> 100 µM (inactive)	> 100 µM (inactive)		> 100 µM (inactive)	> 100 µM (inactive)	> 100 µM (inactive)
COC1(C(C)(C)C)C=C(C(C)(C)C)P(=O)(O)O1 (configuration not stated)	> 100 µM (inactive)	> 100 µM (inactive)	> 100 µM (inactive)	> 100 µM (inactive)			> 100 µM (inactive)	> 100 µM (inactive)	> 100 µM (inactive)	> 100 µM (inactive)	> 100 µM (inactive)	> 100 µM (inactive)	> 100 µM (inactive)	> 100 µM (inactive)		15.7 µM (inactive)	> 100 µM (inactive)	> 100 µM (inactive)
O=C(Cn1c(=O)oc2ccc(C(=O)c3ccc(F)cc3)cc21)c1ccccc1	> 100 µM (inactive)	> 100 µM (inactive)	> 100 µM (inactive)	> 100 µM (inactive)	42.4 µM (inactive)	> 100 µM (inactive)	> 100 µM (inactive)	> 100 µM (inactive)	> 100 µM (inactive)	> 100 µM (inactive)	> 100 µM (inactive)	> 100 µM (inactive)	> 100 µM (inactive)	> 100 µM (inactive)		> 100 µM (inactive)	> 100 µM (inactive)	> 100 µM (inactive)
COc1ccc2c3c([nH]c2c1)CCN(Cc1ccccc1)C3		23.6 µM (inactive)	21 µM (inactive)		24.8 µM (inactive)	18.3 µM (inactive)	24.4 µM (inactive)	21.4 µM (inactive)	31.3 µM (inactive)	24 µM (inactive)	22.8 µM (inactive)	48.3 µM (inactive)	21.4 µM (inactive)	> 10 µM (inactive)		19.1 µM (inactive)	4.35 µM (inactive)	17.4 µM (inactive)
CC1(C)O[C@H](C(=O)O)[C@@H](C(=O)O)O1	> 100 µM (inactive)	> 100 µM (inactive)	> 100 µM (inactive)	> 100 µM (inactive)	> 100 µM (inactive)	> 100 µM (inactive)	> 100 µM (inactive)	> 100 µM (inactive)	> 100 µM (inactive)	> 100 µM (inactive)	> 100 µM (inactive)	> 100 µM (inactive)	> 100 µM (inactive)	> 100 µM (inactive)		> 100 µM (inactive)	> 100 µM (inactive)	> 100 µM (inactive)
N#CC1(C#N)C2CCCCC23OC(=N)C1(C#N)C(c1ccccc1)O3 (configuration not stated)	10.8 µM (inactive)	25.6 µM (inactive)	21.2 µM (inactive)	21.4 µM (inactive)	25.1 µM (inactive)	31.8 µM (inactive)	16.6 µM (inactive)	45.9 µM (inactive)	36.1 µM (inactive)	17 µM (inactive)		21 µM (inactive)	7.11 µM (inactive)	14.6 µM (inactive)	16.8 µM (inactive)	14.2 µM (inactive)	15.5 µM (inactive)	
COC(=O)C1=C(O)C(C(=O)OC)[C@]2(O)[C@H](C(=O)OC)[C@H]1C[C@@H](c1cccc(OC)c1)[C@H]2C(=O)OC (some centres not stated)	22.4 µM (inactive)	17.5 µM (inactive)	24.9 µM (inactive)		20.4 µM (inactive)	18.8 µM (inactive)	34 µM (inactive)	25.9 µM (inactive)	20.4 µM (inactive)	22.2 µM (inactive)	19.4 µM (inactive)	31.6 µM (inactive)	28.4 µM (inactive)	20.7 µM (inactive)	30.6 µM (inactive)	20.5 µM (inactive)	47 µM (inactive)	21.9 µM (inactive)
O=[N+]([O-])c1ccc(O)c(/C=N/CC2CCCN3CCCCC23)c1 (configuration not stated)	57.7 µM (inactive)		31.7 µM (inactive)	57.1 µM (inactive)		23 µM (inactive)	> 100 µM (inactive)	25.1 µM (inactive)	26.9 µM (inactive)	44.2 µM (inactive)		30.8 µM (inactive)		38.8 µM (inactive)	38.6 µM (inactive)	22.5 µM (inactive)		
CN1CCN(C(=S)N(C(=O)c2ccc(Cl)cc2)C2CCCCC2)CC1		> 100 µM (inactive)	> 100 µM (inactive)		63.1 µM (inactive)	> 100 µM (inactive)	> 100 µM (inactive)	> 100 µM (inactive)	> 100 µM (inactive)		> 100 µM (inactive)	> 100 µM (inactive)	51.3 µM (inactive)	> 100 µM (inactive)	> 100 µM (inactive)	> 100 µM (inactive)	> 100 µM (inactive)	58.9 µM (inactive)
O=S(=O)(O)c1cc(S(=O)(=O)O)c2c(/N=N/c3ccc(S(=O)(=O)O)c4ccccc34)c(O)ccc2c1	> 100 µM (inactive)	> 100 µM (inactive)	> 100 µM (inactive)	> 100 µM (inactive)	> 100 µM (inactive)	> 100 µM (inactive)	> 100 µM (inactive)	> 100 µM (inactive)	> 100 µM (inactive)	> 100 µM (inactive)	> 100 µM (inactive)	> 100 µM (inactive)	> 100 µM (inactive)	> 100 µM (inactive)	> 100 µM (inactive)		> 100 µM (inactive)	
Cc1ccc(-n2nnc(C(N)=O)c2O)cc1	> 100 µM (inactive)	> 100 µM (inactive)	> 100 µM (inactive)	> 100 µM (inactive)	> 100 µM (inactive)	> 100 µM (inactive)	> 100 µM (inactive)	> 100 µM (inactive)	> 100 µM (inactive)	> 100 µM (inactive)	> 100 µM (inactive)	> 100 µM (inactive)	> 100 µM (inactive)	> 100 µM (inactive)	> 100 µM (inactive)	> 100 µM (inactive)		
CC(=O)O[C@H]1C[C@H](O[C@H]2[C@@H](O)C[C@H](O[C@H]3[C@@H](O)C[C@H](O[C@H]4CC[C@@]5(C)[C@H](CC[C@@H]6[C@@H]5CC[C@]5(O)[C@@H](C7=CC(=O)OC7)CC[C@]65O)C4)O[C@@H]3C)O[C@@H]2C)O[C@H](C)[C@H]1O[C@@H]1O[C@H](CO)[C@@H](O)[C@H](O)[C@H]1O	0.132 µM (active)	0.624 µM (active)	0.455 µM (active)	0.328 µM (active)	0.0262 µM (active)		0.428 µM (active)	0.771 µM (active)	0.075 µM (active)	0.243 µM (active)	0.462 µM (active)	0.452 µM (active)	0.337 µM (active)	0.258 µM (active)	0.304 µM (active)	1.52 µM (inactive)	0.792 µM (active)	
COC[C@H]1OC(=O)c2coc3c2[C@@]1(C)C1=C(C3=O)[C@@H]2CCC(=O)[C@@]2(C)C[C@H]1OC(C)=O [WORTMANNIN]	0.0108 µM (active)	3.25 µM (inactive)	15 µM (inactive)	0.598 µM (active)	2.09 µM (inactive)		11.9 µM (inactive)	6.38 µM (inactive)	13.6 µM (inactive)	13.4 µM (inactive)	2.43 µM (inactive)	25 µM (inactive)	37.2 µM (inactive)	8.43 µM (inactive)		2.16 µM (inactive)		1.84 µM (inactive)
